Results as given in patent US11447465B2, “Pharmaceutical compounds for treatment of medical disorders” (Achillion Pharmaceuticals, Inc., priority 2017, dated 2022).

target: Human Factor D (Homo sapiens (Human), UniProt P00746); test: Human Factor D Assay; type: biochemical; conditions: Table 5; Human Factor D 80 nM, substrate Z-L-Lys-SBzl; read-out: IC50 (Stars)
Procedure: Human Factor D (purified from human serum, Complement Technology, Inc.) at 80 nM final concentration is incubated with test compound at various concentrations for 5 min at room temperature in 50 mM Tris, 1M NaCl, pH 7.5. A synthetic substrate Z-L-Lys-SBzl and DTNB (Ellman's reagent) are added to final concentrations of 100 μM each. Absorbance at 405 nm (A405) is recorded at 30 second intervals for 30 min using a microplate spectrophotometer. IC50 values are calculated by nonlinear regression of Complement Factor D reaction rates as a function of test compound concentration.

Chain of Human Factor D (P00746 26-253): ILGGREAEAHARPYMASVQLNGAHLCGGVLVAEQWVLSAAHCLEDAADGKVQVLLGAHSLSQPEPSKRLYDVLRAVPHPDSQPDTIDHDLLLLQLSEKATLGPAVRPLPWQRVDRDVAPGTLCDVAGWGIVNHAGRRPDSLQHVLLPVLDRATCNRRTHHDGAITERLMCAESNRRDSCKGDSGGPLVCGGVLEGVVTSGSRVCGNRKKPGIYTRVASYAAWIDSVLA

Row | Structure (SMILES) | IC50 [nM]
1 | CC(=O)c1nn(CC(=O)N2C[C@H]3C[C@H]3[C@H]2C(=O)Nc2nc(Br)ccc2C)c2cc(C)sc12 [Compound T-2, (1R,2S,5S)-3-(2-(3-acetyl-5-methyl-1H-thieno[3,2-c]pyrazol-1-yl)acetyl)-N-(6-bromo-3-methylpyridin-2-yl)-3-azabicyclo[3.10]hexane-2-carboxamide] | < 1000
2 | CC(=O)c1nn(CC(=O)N2C[C@H](F)C[C@H]2C(=O)Nc2cccc(Br)n2)c2ccc(S(C)(=N)=O)cc12 (stereo partly drawn) [Compound T-3, (2S,4R)-1-(2-(3-acetyl-5-(S-methylsulfonimidoyl)-1H-indazol-1-yl)acetyl)-N-(6-bromopyridin-2-yl)-4-fluoropyrrolidine-2-carboxamide] | < 1000
3 | CC(=O)c1nn(CC(=O)N2C[C@H](F)C[C@H]2C(=O)Nc2cccc(Br)n2)c2cc(/S(C)=N/C(=O)C(F)(F)F)ccc12 (stereo partly drawn) [Compound T-4, (2S,4R)-1-(2-(3-acetyl-6-((E)-S-methyl-N-(2,2,2-trifluoroacetyl)sulfinimidoyl)-1H-indazol-1-yl)acetyl)-N-(6-bromopyridin-2-yl)-4-fluoropyrrolidine-2-carboxamide] | < 1000
4 | CC(=O)c1nn(CC(=O)N2C[C@H](F)C[C@H]2C(=O)Nc2cccc(Br)n2)c2cc(S(C)(=N)=O)ccc12 (stereo partly drawn) [Compound T-5, (2S,4R)-1-(2-(3-acetyl-6-(S-methylsulfonimidoyl)-1H-indazol-1-yl)acetyl)-N-(6-bromopyridin-2-yl)-4-fluoropyrrolidine-2-carboxamide] | < 1000
5 | CC(=O)c1nn(CC(=O)N2[C@H](C(=O)Nc3cccc(Br)n3)C[C@@]3(C)C[C@@H]23)c2cc(S(C)(=N)=O)ccc12 (stereo partly drawn) [Compound T-6, (1R,3S,5R)-2-(2-(3-acetyl-6-(S-methylsulfonimidoyl)-1H-indazol-1-yl)acetyl)-N-(6-bromopyridin-2-yl)-5-methyl-2-azabicyclo[3.1.0]hexane-3-carboxamide] | < 1000
6 | CC(=O)c1nn(CC(=O)N2C[C@H]3C[C@H]3[C@H]2C(=O)Nc2cccc(Br)n2)c2cc(S(C)(=N)=O)ccc12 (stereo partly drawn) [Compound T-7, (1R,2S,5S)-3-(2-(3-acetyl-6-(S-methylsulfonimidoyl)-1H-indazol-1-yl)acetyl)-N-(6-bromopyridin-2-yl)-3-azabicyclo[3.1.0]hexane-2-carboxamide] | < 1000
7 | CC(=O)c1nn(CC(=O)N2C[C@H](F)C[C@H]2C(=O)NCC23C4C5C6C4C2C6C53)c2ccccc12 (stereo partly drawn) [Compound T-8, (2S,4R)-1-(2-(3-acetyl-1H-indazol-1-yl)acetyl)-N-(cuban-1-ylmethyl)-4-fluoropyrrolidine-2-carboxamide] | 1000 to 10000
8 | CC(=O)c1nn(CC(=O)N2[C@H](C(=O)Nc3nc(Br)ccc3C)C[C@@]3(C)C[C@@H]23)c2ccc(NC(=O)C3CCCCC3(F)F)cc12 (stereo partly drawn) [Compound T-9, (1R,3S,5R)-2-(2-(3-acetyl-5-(2,2-difluorocyclohexane-1-carboxamido)-1H-indazol-1-yl)acetyl)-N-(6-bromo-3-methylpyridin-2-yl)-5-methyl-2-azabicyclo[3.10]hexane-3-carboxamide] | < 1000
9 | CC(=O)c1nn(CC(=O)N2C[C@H]3C[C@H]3[C@H]2C(=O)Nc2nc(Br)ccc2C2CC2)c2cc(C)sc12 [Compound T-10, (1R,2S,5S)-3-(2-(3-acetyl-5-methyl-1H-thieno[3,2-c]pyrazol-1-yl)acetyl)-N-(6-bromo-3-cyclopropylpyridin-2-yl)-3-azabicyclo[3.1.0]hexane-2-carboxamide] | < 1000
10 | CC(=O)c1nn(CC(=O)N2C[C@H](F)C[C@H]2C(=O)Nc2cccc(Br)n2)c2cc(S(C)(=O)=NC#N)ccc12 (some centres unmarked) [Compound T-11] | < 1000
11 | CC(=O)c1nn(CC(=O)N2[C@H](C(=O)Nc3nc(Br)ccc3C)C[C@@]3(C)C[C@@H]23)c2ccccc12 [Compound T-13, (1R,3S,5R)-2-(2-(3-acetyl-1H-indazol-1-yl)acetyl)-N-(6-bromo-3-methylpyridin-2-yl)-5-methyl-2-azabicyclo[3.1.0]hexane-3-carboxamide] | < 1000
12 | CC(=O)c1ccn(CC(=O)N2C[C@H](F)C[C@H]2C(=O)Nc2cccc(Br)n2)n1 [Compound T-14, (2S,4R)-1-(2-(3-acetyl-1H-pyrazol-1-yl)acetyl)-N-(6-bromopyridin-2-yl)-4-fluoropyrrolidine-2-carboxamide] | < 1000
13 | NC(=O)c1cc(C(F)(F)F)n(CC(=O)N2C[C@H](F)C[C@H]2C(=O)Nc2cccc(Br)n2)n1 [Compound T-15, 1-(2-((2S,4R)-2-((6-bromopyridin-2-yl)carbamoyl)-4-fluoropyrrolidin-1-yl)-2-oxoethyl)-5-(trifluoromethyl)-1H-pyrazole-3-carboxamide] | < 1000
14 | COC(=O)c1cc(C(C)=O)cn1CC(=O)N1C[C@H](F)C[C@H]1C(=O)Nc1cccc(Br)n1 [Compound T-16, methyl 4-acetyl-1-(2-((2S,4R)-2-((6-bromopyridin-2-yl)carbamoyl)-4-fluoropyrrolidin-1-yl)-2-oxoethyl)-1H-pyrrole-2-carboxylate] | 1000 to 10000
15 | CC(=O)c1cc(C(=O)O)n(CC(=O)N2C[C@H](F)C[C@H]2C(=O)Nc2cccc(Br)n2)c1 [Compound T-17, 4-acetyl-1-(2-((2S,4R)-2-((6-bromopyridin-2-yl)carbamoyl)-4-fluoropyrrolidin-1-yl)-2-oxoethyl)-1H-pyrrole-2-carboxylic acid] | < 1000
16 | CC(=O)c1cc(C(=O)N2CCC(F)(F)C2)n(CC(=O)N2C[C@H](F)C[C@H]2C(=O)Nc2cccc(Br)n2)c1 [Compound T-18, (2S,4R)-1-(2-(4-acetyl-2-(3,3-difluoropyrrolidine-1-carbonyl)-1H-pyrrol-1-yl)acetyl)-N-(6-bromopyridin-2-yl)-4-fluoropyrrolidine-2-carboxamide] | > 10000
17 | CC(=O)c1cc(C(=O)NCc2cnc(C)nc2)n(CC(=O)N2C[C@H](F)C[C@H]2C(=O)Nc2cccc(Br)n2)c1 [Compound T-19, 4-acetyl-1-(2-((2S,4R)-2-((6-bromopyridin-2-yl)carbamoyl)-4-fluoropyrrolidin-1-yl)-2-oxoethyl)-N-((2-methylpyrimidin-5-yl)methyl)-1H-pyrrole-2-carboxamide] | < 1000
18 | CC(=O)c1cn(CC(=O)N2C[C@H](F)C[C@H]2C(=O)Nc2cccc(Br)n2)c(C)n1 [Compound T-20, (2S,4R)-1-(2-(4-acetyl-2-methyl-1H-imidazol-1-yl)acetyl)-N-(6-bromopyridin-2-yl)-4-fluoropyrrolidine-2-carboxamide] | > 10000
19 | CCOC(=O)/C=C/c1cn(CC(=O)N2C[C@H](F)C[C@H]2C(=O)Nc2cccc(Br)n2)nc1C(N)=O [Compound T-22, (E)-ethyl 3-(1-(2-((2S,4R)-2-((6-bromopyridin-2-yl)carbamoyl)-4-fluoropyrrolidin-1-yl)-2-oxoethyl)-3-carbamoyl-1H-pyrazol-4-yl)acrylate] | 1000 to 10000
20 | CC(=O)c1cc(C(N)=O)n(CC(=O)N2C[C@H](F)C[C@H]2C(=O)Nc2cccc(Br)n2)n1 [Compound T-23, 3-acetyl-1-(2-((2S,4R)-2-((6-bromopyridin-2-yl)carbamoyl)-4-fluoropyrrolidin-1-yl)-2-oxoethyl)-1H-pyrazole-5-carboxamide] | < 1000
21 | CC(=O)c1cc(C(=O)NCc2cscn2)n(CC(=O)N2C[C@H](F)C[C@H]2C(=O)Nc2cccc(Br)n2)n1 [Compound T-24, 3-acetyl-1-(2-((2S,4R)-2-((6-bromopyridin-2-yl)carbamoyl)-4-fluoropyrrolidin-1-yl)-2-oxoethyl)-N-(thiazol-4-ylmethyl)-1H-pyrazole-5-carboxamide] | < 1000
22 | CC(=O)c1nn(CC(=O)N2[C@H](C(=O)Nc3nc(Br)ccc3C)C[C@@]3(C)C[C@@H]23)c2ccc(NC(=O)C3CCCC3(F)F)cc12 (stereo partly drawn) [Compound T-27, (1R,3S,5R)-2-(2-(3-acetyl-5-(2,2-difluorocyclopentane-1-carboxamido)-1H-indazol-1-yl)acetyl)-N-(6-bromo-3-methylpyridin-2-yl)-5-methyl-2-azabicyclo[3.1.0]hexane-3-carboxamide] | < 1000
23 | NC(=O)c1nn(CC(=O)N2C[C@H](F)C[C@H]2C(=O)Nc2cccc(Br)n2)cc1/C=C/C(=O)NC1CC1 [Compound T-28, 1-(2-((2S,4R)-2-((6-bromopyridin-2-yl)carbamoyl)-4-fluoropyrrolidin-1-yl)-2-oxoethyl)-4-((E)-3-(cyclopropylamino)-3-oxoprop-1-en-1-yl)-1H-pyrazole-3-carboxamide] | 1000 to 10000
24 | CC(=O)c1nn(CC(=O)N2[C@H](C(=O)Nc3nc(Br)ccc3C)C[C@@]3(C)C[C@@H]23)c2ccc(OC(=O)NC3CC3)cc12 [Compound T-32, 3-acetyl-1-(2-((1R,3S,5R)-3-((6-bromo-3-methylpyridin-2-yl)carbamoyl)-5-methyl-2-azabicyclo[3.1.0]hexan-2-yl)-2-oxoethyl)-1H-indazol-5-yl cyclopropylcarbamate] | < 1000
25 | CC(=O)c1nn(CC(=O)N2[C@H](C(=O)Nc3nc(Br)ccc3C)C[C@@]3(C)C[C@@H]23)c2cc(S(C)(=N)=O)ccc12 (stereo partly drawn) [Compound T-33, (1R,3S,5R)-2-(2-(3-acetyl-6-(S-methylsulfonimidoyl)-1H-indazol-1-yl)acetyl)-N-(6-bromo-3-methylpyridin-2-yl)-5-methyl-2-azabicyclo[3.1.0]hexane-3-carboxamide] | < 1000
26 | CC(=O)c1nn(CC(=O)N2[C@H](C(=O)Nc3nc(Br)ccc3C)C[C@@]3(CNC(=O)CC(F)(F)F)C[C@@H]23)c2c(C)cccc12 [Compound T-35, (1R,3S,5R)-2-(2-(3-acetyl-7-methyl-1H-indazol-1-yl)acetyl)-N-(6-bromo-3-methylpyridin-2-yl)-5-((3,3,3-trifluoropropanamido)methyl)-2-azabicyclo[3.1.0]hexane-3-carboxamide] | < 1000
